# Reference: article PMC12114840, “Exploring the Anticancer Properties of 1,2,3-Triazole-Substituted Andrographolide Derivatives” (Pharmaceuticals, 2025)
# Key:
# [1] = system: PANC-1 cells (pancreatic ductal adenocarcinoma); test: Sulforhodamine B (SRB) antiproliferative assay, PANC-1; assay type: cell-based, human
# Procedure: (§1) The antiproliferative properties of andrographolide and all prepared derivatives (2–26) were evaluated against a panel of different cancer cell lines, including human pancreatic ductal adenocarcinoma (PANC-1), colorectal adenocarcinoma (HCT116), melanoma (A375), breast adenocarcinoma (MCF-7) and a non-tumorigenic colon (CCD-18Co) cell line using the sulforhodamine B assay.
# (§2) Human breast adenocarcinoma MCF-7, pancreatic ductal adenocarcinoma PANC-1, melanoma A375, and non-tumorigenic colon CCD-18Co cell lines were purchased from ATCC (Rockville, MD, USA). Human colorectal adenocarcinoma HCT116 cells were kindly provided by B. Vogelstein (The Johns Hopkins Kimmel Cancer Center, Baltimore, MD, USA). Tumor cells were routinely cultured in RPMI-1640 medium with UltraGlutamine from Biowest (VWR, Carnaxide, Portugal) supplemented with 10% fetal bovine serum (FBS) from Biowest (VWR, Carnaxide, Portugal), except for the PANC-1 cells, which were grown in DMEM (4.5 g/L glucose) with stable L-glutamine and sodium pyruvate and supplemented with 10% FBS. The non-tumorigenic CCD-18Co cells were cultured in EMEM (Lonza, VWR, Carnaxide, Portugal), supplemented with 10% FBS. All cells were incubated at 37 °C in a humidified atmosphere of 5% CO2. Routine mycoplasma testing was performed using the MycoAlert™ PLUS mycoplasma detection kit (Lonza).
# (§3) For the evaluation of the compound effect on cell proliferation, human cell lines were seeded in 96-well plates at a density of 5.0 × 10^3 (HCT116, MCF-7, PANC-1, A375, and CCD-18Co) cells per well, for 24 h. Cells were then treated with serial dilutions of the compound (ranging from 0.63 to 30 µM), for an additional 48 h incubation period. The growth inhibitory effects were assessed by SRB assay, as described in [58], and the half-maximal inhibitory concentration (IC50 values) were determined for each cell line using the GraphPad Prism software version 7.0 (La Jolla, CA, USA). Culture medium containing a maximum of 0.05% dimethyl sulfoxide (DMSO) was used as negative control.
# [2] = system: HCT116 cells (colorectal adenocarcinoma); test: Sulforhodamine B (SRB) antiproliferative assay, HCT116; assay type: cell-based; conditions: Homo sapiens, HCT-116, HCT116, 48 h, mean ± SEM of four to six independent experiments
# Procedure: as §1, §2, §3
# A375 cells (melanoma) = test: Sulforhodamine B (SRB) antiproliferative assay, A375; assay type: cell-based; conditions: Homo sapiens, A-375, A375, 48 h, mean ± SEM of four to six independent experiments
# Procedure: as §1, §2, §3
# PANC-1 cells [3] = test: Cell cycle analysis by flow cytometry (propidium iodide); assay type: cell-based, human; conditions: PANC-1, 3 μM and 6 μM, 48 h
# Procedure: (§4) To elucidate the antiproliferative activity of compound 12, cell cycle analysis was performed in the PANC-1 cancer cell line. The cell cycle is a highly controlled process where cellular DNA is replicated and then equally partitioned in two daughter cells. The cell cycle is composed of two distinct phases: the interphase, where the cell grows and undergoes three distinct periods—the G1 (pre-DNA synthesis), S (DNA synthesis), and G2 (pre-division) phases—and mitosis, where cell undergoes division. The newly formed daughter cells then enter the preparatory phases of interphase, and start the G0 phase (quiescence). […] Thus, PANC-1 cells were treated with compound 12 at 3 and 6 µM for 48 h and then analyzed by flow cytometry (Figure 1B,C).
# The analyses were performed as described in the literature. In particular, 1.5 × 10^5 PANC-1 cells/well were seeded in 6-well plates and allowed to adhere overnight, followed by treatment with 3 µM and 6 µM of compound 12 for 48 h. For cell cycle analysis, cells were stained with propidium iodide (Sigma-Aldrich) and subjected to flow cytometry. Cell cycle phases were identified and quantified using the FlowJo X 10.0.7 software (Treestar, Ashland, OR, USA). For apoptosis analysis, cells were stained using the Annexin V-FITC Apoptosis Detection Kit I from BD Biosciences (Enzifarma, Porto, Portugal), according to the manufacturer’s instructions. […]
# p21 = test: Western blot, p21; assay type: cell-based, human; conditions: PANC-1, 3 and 6 μM, 48 h
# Procedure: as §4
# PANC-1 (1.5 × 10^5 cells/well) were seeded in six-well plates, allowed to adhere overnight, and treated with 3 µM and 6 µM of compound 12 for 48 h. Protein lysates were obtained in RIPA buffer with protease inhibitors (Sigma-Aldrich, Lisbon, Portugal) and quantified using Pierce® bicinchoninic acid (BCA) protein assay reagents (Thermo Fisher Scientific, Porto Salvo, Portugal). […] The signal was detected with enhanced chemiluminescence (ECL) (Amersham, GE Healthcare Life Sciences, Enzymatic, Portugal) using the ChemiDoc^TM MP Imaging system (BioRad Laboratories, Amadora, Portugal).
# PANC-1 cells [4] = test: Drug combination assay with 5-fluorouracil (SRB, CompuSyn); assay type: cell-based, human; conditions: PANC-1, 48 h
# Procedure: Using the CompuSyn software (version 1.0), a multiple drug effect analysis was performed for each combination, to determine combination index (CI) and dose-reduction index (DRI) values. CI values indicate the effect of combining multiple drugs as synergistic (CI < 1), additive (CI = 1), or antagonistic (CI > 1). DRI values represent the fold decrease in the dose of a drug needed when in combination to achieve the same efficacy as the drug alone. DRI values > 1 are favorable given the concern for toxicity when combining multiple drugs.
# The effect on cell proliferation was analyzed by SRB assay. […] Synergistic interactions of drugs were indicated as CI < 1, antagonist interactions as CI > 1.1, and additive effects as 1 < CI < 1.1.
compound,measurement,setting,value
"C=C1CC[C@@H]2[C@](C)(COC(C)=O)[C@H](OC(C)=O)CC[C@@]2(C)[C@@H]1C[C@H](C1=CCOC1=O)n1cc(-c2ccc(Br)cc2)nn1 [Compound 12, (12R)-4-bromophenyl-1,2,3-triazole-3,19-diacetoxy-14-deoxy-andrographolide]",IC50,"[1]; Homo sapiens, PANC-1, 48 h, SRB, mean ± SEM of four to six independent experiments",3.4 ± 0.9 µM
same,IC10,"[1]; PANC-1, concentration which has no significant effect on cell proliferation",1350 nM
same,IC50,[2],1.7 ± 0.2 µM
same,IC50,A375 cells (melanoma),1.7 µM
same,G2/M population compared to the control,PANC-1 cells [3],significant increase in the G2/M population
same,expression of p21,p21,increased the expression of p21 in a dose-dependent manner
same,combination index (CI),PANC-1 cells [4]; 5-FU 3.75 µM + 1.35 µM of compound 12,0.87
same,combination index (CI),PANC-1 cells [4]; 5-FU 7.5 µM + 1.35 µM of compound 12,0.90
